Values of other authors, collected in patent US20080044486A1, “Controlled Food Effect Composition” (priority 2003, published 2008).

Key:
[1] = oral, conventional pharmaceutical composition

| Food effect in a conventional composition (references) [1] | LogP | Structure (SMILES) |
| --- | --- | --- |
| High-fat food gives increased | −1.9 | NC(=O)c1ncn([C@@H]2O[C@H](CO)[C@@H](O)[C@H]2O)n1 [Ribavirin] |
| Increased absorption (2) | 4.1 | COC(=O)C1=C(C)NC(C)=C(C(=O)OCCN2CCN(C(c3ccccc3)c3ccccc3)CC2)C1c1cccc([N+](=O)[O-])c1 (stereo not shown) [Manidipine] |
| High-fat food gives increased | 8.9 | CCCCN(CCCC)CC(O)c1cc(Cl)cc2c1-c1ccc(Cl)cc1/C2=C/c1ccc(Cl)cc1 (stereo not shown) [Lumefantrine] |
| Increased absorption (1, 4, 5) |  | CC(C)c1nc(CN(C)C(=O)N[C@H](C(=O)N[C@@H](Cc2ccccc2)C[C@H](O)[C@H](Cc2ccccc2)NC(=O)OCc2cncs2)C(C)C)cs1 [Ritonavir] |
| Increased but delayed absorption |  | CCOC(=O)N1CCC(=C2c3ccc(Cl)cc3CCc3cccnc32)CC1 [Loratadine] |
|  | 3.8 | CC(C)(C)NC(=O)[C@@H]1C[C@@H]2CCCC[C@@H]2CN1C[C@@H](O)[C@H](Cc1ccccc1)NC(=O)[C@H](CC(N)=O)NC(=O)c1ccc2ccccc2n1 [Saquinavir] |
| High-fat food gives increased | 3.5 | CO[C@H]1O[C@@H]2O[C@@]3(C)CC[C@H]4[C@H](C)CC[C@@H]([C@H]1C)[C@@]24OO3 [Artemether] |
|  | 0.8 | NC(=O)c1cn(Cc2c(F)cccc2F)nn1 [Rufinamide] |
| High-fat food gives increased | 6.1 | CC1=C(/C=C/C(C)=C/C=C/C(C)=C/C(=O)Nc2ccc(O)cc2)C(C)(C)CCC1 [Fenretinide] |
| Increased absorption (7) |  | CC1=C(/C=C/C(C)=C/C=C/C(C)=C\C(=O)O)C(C)(C)CCC1 [Isotretinoin] |

The remaining lines, values behind:

| Structure (SMILES) | Food effect in a conventional composition (references) [1] | LogP |
| --- | --- | --- |
| O=C1C(O)=C([C@H]2CC[C@H](c3ccc(Cl)cc3)CC2)C(=O)c2ccccc21 [Atovaquone] | High-fat food gives increased | 4.9 |
| CC(=O)Oc1ccccc1C(=O)O [Acetylsalicylic acid] | Delayed absorption and reduced |  |
| Cc1c(-c2cnccn2)ssc1=S [Oltipraz] | Increased absorption (6) | 1.7 |
| CC(C)/N=c1\cc2n(-c3ccc(Cl)cc3)c3ccccc3nc-2cc1Nc1ccc(Cl)cc1 [Clofazimine] | Increased absorption (2, 4) |  |
| CC(=O)S[C@@H]1CC2=CC(=O)CC[C@]2(C)[C@H]2CC[C@@]3(C)[C@@H](CC[C@@]34CCC(=O)O4)[C@H]12 [Spironolactone] | Increased absorption and reduced | 2.8 |
| CCCCc1oc2ccccc2c1C(=O)c1cc(I)c(OCCN(CC)CC)c(I)c1 [Amiodarone] | Increased absorption (3) |  |
| CO[C@H]1C[C@@H]2CC[C@@H](C)[C@@](O)(O2)C(=O)C(=O)N2CCCC[C@H]2C(=O)O[C@H]([C@H](C)C[C@@H]2CC[C@@H](O)[C@H](OC)C2)CC(=O)[C@H](C)/C=C(\C)[C@@H](O)[C@@H](OC)C(=O)[C@H](C)C[C@H](C)/C=C/C=C/C=C/1C [Sirolimus] | High-fat food gives increased | 5.3 |
| C#C[C@]1(O)CC[C@H]2[C@@H]3CCC4=Cc5oncc5C[C@]4(C)[C@H]3CC[C@@]21C [Danazol] |  | 4.3 |
| COc1cc(C)c(/C=C/C(C)=C/C=C/C(C)=C/C(=O)O)c(C)c1C [Acitretin] | Increased absorption (2, 4) | 6.4 |
| CCCC(CCC)C(=O)O [Valproic acid] | Delayed absorption and reduced |  |
| CCOC(=O)/C=C(C)/C=C/C=C(C)/C=C/c1c(C)cc(OC)c(C)c1C [Etretinate] |  | 6.6 |
| CC(C)OC(=O)OCOP(=O)(CO[C@H](C)Cn1cnc2c(N)ncnc21)OCOC(=O)OC(C)C [Tenofovir disoproxil] | High-fat food gives increased | 0.6 |
| O=C(c1ccc(OCCN2CCCCC2)cc1)c1c(-c2ccc(O)cc2)sc2cc(O)ccc12 [Raloxifene] |  | 5.5 |
| CCOC(=O)C1=C(C)NC(C)=C(C(=O)OC)C1c1cccc(Cl)c1Cl (stereo not shown) [Felodipine] | High-fat food gives increased |  |
| CCC(C)n1ncn(-c2ccc(N3CCN(c4ccc(OCC5COC(Cn6cncn6)(c6ccc(Cl)cc6Cl)O5)cc4)CC3)cc2)c1=O (stereo not shown) [Itraconazole] | Increased but delayed absorption | 5.7 |
